Test results as given in US20150322033A1, “ANTIBACTERIAL AGENT” (priority 2012, published 2015).
Converted amounts (≈) assume the structure as drawn. Where two headings read alike, the source gives them in different places.

Experiments:
[1] = tested on: S. aureus FDA209P (ATCC 6538P); assay: microbe, parasite or virus in culture; type: cell-based, Staphylococcus aureus; settings: for MIC: Staphylococcus aureus
Method: (§1) S. aureus Mu50 (refer to Hiramatsu, K., Hanaki H., et al., J. Antimicrob. Chemother., 1997, 40(1), 135-6) or S. aureus FDA209P (ATCC 6538P) was cultured overnight at 37° C. in 4 mL of TBS (Tryptical Soy Broth, produced by Becton Dickinson) with shaking. After completion of the culture, the cells were suspended in fresh TBS to prepare a cell suspension showing an absorbance of 0.3 at 578 nm. Then, the cell suspension was diluted 500 times with CAMHB mentioned above.
(§2) CAMHB containing each test compound at each of the aforementioned concentrations was added to each well of a 96-well plate in a volume of 50 μL/well, the aforementioned cell suspension diluted 500 time was added to the well in a volume of 50 μL/well, and stationary culture was carried out overnight at 37° C.
(§3) MIC values (mg/L) of the flavones and quinolones against the strains were measured in the same manner as that of the measurement of MIC of Example 1, except that CAMHB containing each of the aforementioned flavones and quinolones prepared in Example 2 was used instead of CAMHB containing each of the test compounds.
(§4) MIC values of the flavones and quinolone for the strains were measured in the same manners as those of Example 1, except that S. aureus Mu50 NR-1 was also used as Staphylococcus aureus in addition to S. aureus FDA209P and S. aureus Mu50, cell suspensions of the strains were prepared.
(§5) In the same manner as that of Example 1, MIC values of M-246, M-21, J-Q21, and J-Q12.1 for Staphylococcus aureus were measured. M-246 and M-21 were obtained as commercial products, and as J-Q21 and J-Q12.1, those synthesized in Examples 6 and 7 were used.

S. aureus Mu50 = assay: microbe, parasite or virus in culture; type: cell-based, Staphylococcus aureus; settings: for MIC: Staphylococcus aureus; for MIC (mg/L) Mu50: Example 1, Tables 1 to 10
Method: as §1, §2, §3, §4, §5

[2] = Example 1, Tables 1 to 10, read-out: MIC (mg/L) FDA209P
[3] = MU50, read-out: MIC (mg/L) Mu50, Example 1, Tables 1 to 10

Molecule	MIC [1, 2]	MIC (S. aureus Mu50; [3])	also measured
O=c1cc(-c2ccc(O)cc2)oc2cc(O)c(O)c(O)c12 [compound 41]	128 mg/L (≈ 447 µM)	128 mg/L (≈ 447 µM)	–
COc1ccc(-c2cc(=O)c3c(OC)c(OC)c(OC)c(OC)c3o2)cc1 [compound 11]	–	–	MIC (mg/L) FDA209P ([1]; Example 1, Tables 1 to 10): >128 mg/L; MIC (mg/L) Mu50 (S. aureus Mu50): >128 mg/L
COc1c2c(cc3occ(-c4ccc(O)cc4)c(=O)c13)OCO2 [compound 97]	–	–	MIC (mg/L) FDA209P ([1]; Example 1, Tables 1 to 10): 128 mg/L (≈ 410 µM); MIC (mg/L) Mu50 (S. aureus Mu50): 128 mg/L (≈ 410 µM)
COc1cc(OC2OC(CO)C(O)C(O)C2O)c2c(=O)c(-c3ccc(O)cc3)coc2c1 (stereo not drawn) [compound 96]	–	–	MIC (mg/L) FDA209P ([1]; Example 1, Tables 1 to 10): 128 mg/L (≈ 287 µM); MIC (mg/L) Mu50 (S. aureus Mu50): 128 mg/L (≈ 287 µM)
CCOC(=O)c1oc2cc(O)cc(O)c2c(=O)c1-c1ccc(OC)cc1 [compound 71]	128 mg/L (≈ 359 µM)	128 mg/L (≈ 359 µM)	–
O=c1c(-c2ccc(O[C@@H]3O[C@H](CO)[C@@H](O)[C@H](O)[C@H]3O)cc2)coc2cc(O)cc(O)c12 [compound 120]	–	–	MIC (mg/L) FDA209P ([1]; Example 1, Tables 1 to 10): >128 mg/L; MIC (mg/L) Mu50 (S. aureus Mu50): >128 mg/L
COc1ccc(-c2c(C)oc3cc(O)cc(O)c3c2=O)cc1OC [compound 73]	128 mg/L (≈ 390 µM)	> 128 mg/L	–
O=c1cc(-c2ccc(O)cc2)oc2c(C3CC3)c(O)ccc12 [J-Q21, 8-Cyclopropyl-7-hydroxy-2-(4-hydroxyphenyl)chromen-4-one]	–	–	MIC ([1]; Example 8, Table 17, read-out: MIC FDA209P): > 128 mg/L; MIC (S. aureus Mu50; MU50, read-out: MIC Mu50, Example 8, Table 17): 4 mg/L (≈ 13.6 µM)
CC(=O)Oc1ccc(-c2coc3cc(OC(C)=O)cc(OC(C)=O)c3c2=O)cc1 [compound 82]	> 128 mg/L	> 128 mg/L	–
O=c1c(-c2ccc(O)cc2)coc2cc(O)cc(O)c12 [compound 113]	128 mg/L (≈ 474 µM)	128 mg/L (≈ 474 µM)	–
COc1cc2oc(-c3ccc(O)cc3)cc(=O)c2c(O)c1OC [compound 28]	> 128 mg/L	> 128 mg/L	–
O=c1cc(-c2ccccc2)oc2c(O)c(O)ccc12 [compound 14]	–	–	MIC (mg/L) FDA209P ([1]; Example 1, Tables 1 to 10): 64 mg/L (≈ 252 µM); MIC (mg/L) Mu50 (S. aureus Mu50): 64 mg/L (≈ 252 µM)
O=C(O)[C@H]1O[C@@H](Oc2cc3oc(-c4ccccc4)cc(=O)c3c(O)c2O)[C@H](O)[C@@H](O)[C@@H]1O [compound 59]	128 mg/L (≈ 287 µM)	128 mg/L (≈ 287 µM)	–
COc1cc(-c2oc3cc(O)c(OC)c(O)c3c(=O)c2OC)ccc1O [compound 29]	> 128 mg/L	> 128 mg/L	–
COc1cc(-c2oc3c(OC)c(OC)c(OC)c(OC)c3c(=O)c2OC)cc2c1OCO2 [compound 35]	–	–	MIC (mg/L) FDA209P ([1]; Example 1, Tables 1 to 10): >128 mg/L
COc1ccc(-c2coc3cc(O)cc(O)c3c2=O)cc1 [compound 116]	128 mg/L (≈ 450 µM)	128 mg/L (≈ 450 µM)	–
COc1ccc(C2CC(=O)c3c(O)cc(O)cc3O2)cc1O (stereo not drawn) [compound 125]	128 mg/L (≈ 423 µM)	> 128 mg/L	–
O=c1c(-c2ccc3c(c2)OCCCO3)coc2cc(O)cc(O)c12 [compound 107]	128 mg/L (≈ 392 µM)	128 mg/L (≈ 392 µM)	–
COc1cc2oc(-c3ccc(O)c(O)c3)cc(=O)c2c(O)c1OC [compound 31]	> 128 mg/L	> 128 mg/L	–
COc1cc(O)c2c(=O)c(-c3ccc(O)cc3)coc2c1 [compound 112]	> 128 mg/L	> 128 mg/L	–
COc1ccc(-c2coc3cc(O)cc(OC)c3c2=O)cc1OC [compound 108]	128 mg/L (≈ 390 µM)	128 mg/L (≈ 390 µM)	–
CC(C)Oc1ccc(-c2cc(=O)c3c(OC(C)C)cc(OC(C)C)c(I)c3o2)cc1 [compound 23]	–	–	MIC (mg/L) FDA209P ([1]; Example 1, Tables 1 to 10): >128 mg/L; MIC (mg/L) Mu50 (S. aureus Mu50): >128 mg/L
COc1ccc(-c2coc3cc(OC)cc(O)c3c2=O)cc1 [compound 74]	> 128 mg/L	> 128 mg/L	–
2-phenylchromen-4-one (2-phenyl-1-benzopyran-4-one) [No. 25, reference compound]	–	–	MIC (mg/L) Mu50 (S80F, S84L) (S. aureus Mu50; Example 3, Table 13): 64 mg/L
O=c1c(O)c(-c2ccc(O)c(O)c2)oc2c(OC3OC(CO)C(O)C(O)C3O)c(O)cc(O)c12 (stereo not drawn) [compound 61]	–	–	MIC (mg/L) FDA209P ([1]; Example 1, Tables 1 to 10): 128 mg/L (≈ 266 µM); MIC (mg/L) Mu50 (S. aureus Mu50): 128 mg/L (≈ 266 µM)
O.Oc1cc(O)c2c(c1)OC(c1ccc(O)c(O)c1)C(O)C2 (single isomer, unassigned; (+)) [compound 132, (+)-3,3′,4′,5,7-Flavanpentol Hydrate]	128 mg/L	128 mg/L	–
CC(=O)Oc1cc(OC(C)=O)c2c(=O)cc(-c3ccc(OC(C)=O)c(OC(C)=O)c3)oc2c1 [compound 36]	> 128 mg/L	> 128 mg/L	–
O=c1cc(-c2ccc(O[C@@H]3O[C@H](CO)[C@@H](O)[C@H](O)[C@H]3O)c(O)c2)oc2cc(O)cc(O)c12 [compound 64]	> 128 mg/L	> 128 mg/L	–
